Results from patent US20100069345A1, “Lanthanide-porphyrin complexes as anti-tumor agents” (priority 2005, published 2010).

Assays:
[1] = system: human coloadenocarcinoma cells (HCT-8); experiment: MTT cell viability assay, HCT-8; type: cell-based
Description: (§1) Human cervical epitheloid carcinoma cells (HeLa), human hepatocellular carcinoma cells (HepG2 and Hep3B), human breast cancer cells (MCF-7), human coloadenocarcinoma cells (HCT-8), and normal human lung fibroblast cells (CCD-19Lu) were purchased from American Type Culture Collection (ATCC) Rockville, Md., USA. The human hepatocellular cancinoma cells QGY-7703, and the multi-drug resistant cell line QGY-TR50 derived from QGY-7703, were generously provided by Prof. Yong Xie (The Hong Kong University of Science and Technology, Hong Kong PRC). QGY-TR50 cells were isolated and cultured as described (J. Zhou, S. C. Cheng, D. Luo, Y. Xie Biochem. Biophys. Res. Commun. 2001, 280, 1237-1242). Human nasopharyngeal carcinoma cells (SUNE1 and its cisplatin-resistant variant—CNE2) were derived from poorly differentiated NPC in Chinese patients and were generously provided by Dr. S. W. Tsao (The University of Hong Kong, Hong Kong PRC). Cell culture flasks and 96-well microtitre plates were from Nalge Nunc Int. Culture medium, other medium constituents and phosphate buffer saline (PBS) were obtained by Gibco BRL Rockville, Md., USA. Cell Proliferation kit I (MTT) was purchased from Roche. Mannheim, Germany.

[2] = system: human nasopharyngeal carcinoma cells (SUNE1); experiment: MTT cell viability assay, SUNE1; type: cell-based
Description: as §1

[3] = system: cisplatin-resistant variant (CNE2) of human nasopharyngeal carcinoma cells; experiment: MTT cell viability assay, CNE2; type: cell-based
Description: as §1

[4] = system: multi-drug resistant cell line QGY-TR50; experiment: MTT cell viability assay, QGY-TR50; type: cell-based, human
Description: as §1

Caspase 3 = experiment: Western blotting analysis, caspase 3; type: cell-based, human; conditions: HeLa, 2 μM, 32 h
Protocol: (§2) Cells were washed in cold phosphate-buffered saline (PBS) at 4° C. and lysed in a buffer containing 0.05 M Tis.HCl (pH 7.5), 0.25 M NaCl, 0.005 M EDTA, 0.05 M NaF, 1 mM DTT and 1% Triton. Cell lysates were collected and the protein concentration of cell lysates was measured using a Protein detection kit (Bio-Rad). Equal amount of proteins was resolved in a 12% SDS-PAGE gel and transferred onto nitrocellulose membranes. The membrane was blocked with a blocking solution (1×TBS, 0.1% Tween-20 with 5% non-fat dry milk) at room temperature for 1 h, and washed three times with washing buffer (1×TBS, 0.1% Tween-20) for 5 min each. The membrane was then incubated with primary antibody (Caspase 3, Bid, PARP and β-Actin respectively) for overnight at 4° C. The membrane was washed three times with washing buffer for 5 min each before incubation with the corresponding secondary antibody (horse anti-mouse IgG or goat anti-rabbit IgG). Membrane was washed again and signals were detected using an ECL detection kit (Amersham Pharmacia Biotech) followed by the exposure to X-ray films (Fujifilm).
(§3) After treatment with complex 1 for different time intervals, the expressions of caspase 3, Bid and PARP were detected by the Western blotting analysis. […] Moreover, treatment with complex 1 leads to a reduction in the level of un-cleaved Bid.

Bid = experiment: Western blotting analysis, Bid; type: cell-based, human; conditions: HeLa, 2 μM, 32 h
Protocol: as §2, §3

cytochrome c = experiment: Western blotting of mitochondrial and cytosolic fractions, cytochrome c; type: cell-based, human; conditions: HeLa treated with complex 1
Protocol: Preparation of Mitochondrial and Cytosolic Fractions. Subcellular fractionations of cells were carried out as described previously with modifications […]. In brief, cells were harvested by centrifugation at 1000 g for 5 min at 4° C. Cell pellets were washed once with ice-cold phosphate-buffered saline and resuspended in 5 volumes of buffer A (20 mM HEPES-KOH, pH 7.5, 10 mM KCl, 1.5 mM MgCl2, 1 mM sodium EDTA, 1 mM sodium EGTA, 1 mM dithiothreitol, 0.1 mM phenylmethylsulfonyl fluoride, 1× proteinase inhibitor mix) containing 250 mM sucrose. After incubation on ice for 15 min, the cells were homogenized with a 25-gauge needle for 20 strokes, and the homogenates were centrifuged at 1,000 g for 5 min at 4° C. […] The protein concentration of cell lysates in different portions was measured using a protein detection kit (Bio-Rad). […] Signals were detected using an ECL detection kit (Amersham Pharmacia Biotech) followed by exposure to X-ray films (Fujifilm).
After treatment with complex 1 for different time intervals, the expressions of caspase 3, Bid and PARP were detected by the Western blotting analysis. […]

[5] = IC50 of cisplatin divided by IC50 of complex

IC50 ratio cisplatin/complex, HCT-8 [1, 5]: 11.6
IC50 ([1]; MTT, 37° C., 48 h, mean ± SD): 2270 ± 600 nM
IC50 ratio cisplatin/complex, SUNE1 [2, 5]: 4.8
IC50 ([2]; MTT, 37° C., 48 h, mean ± SD): 2450 nM
IC50 ratio cisplatin/complex, CNE2 [3, 5]: 17.2
IC50 ([3]; MTT, 37° C., 48 h, mean ± SD): 3350 nM
Substance: [Yb2(OEP)2](μ-OH)2 [Complex 1]
IC50 ratio cisplatin/complex, QGY-TR50 [4, 5]: 60.3
IC50 ([4]; MTT, 37° C., 48 h, mean ± SD): 540 nM
expression of caspase 3 (Caspase 3): decrease dramatically
expression of Bid (Bid): decrease dramatically
amount of cytochrome c in the cytosolic fraction (cytochrome c): increase
amount of cytochrome c in the mitochondria (cytochrome c): corresponding decrease
